These results are taken from US20250018047A1, “METHODS AND COMPOSITIONS FOR TARGETED PROTEIN DEGRADATION” (Ranok Therapeutics (Hangzhou) Co. Ltd., priority 2021, published 2025).

Experiment [1] has as its target T1, KRAS(G12D)/SOS1 (Homo sapiens, UniProt P01116, G12D).
T1 construct: purchased Cisbio 63ADK000CB16PEG
Put plainly: KRAS(G12D)/SOS1 homogeneous time-resolved fluorescence (HTRF) assay. In kind it is binding. Particulars: absence of GTP, 4° C. for 3 hr. As for the experimental part: The test compound was mixed and incubated with reaction components, incubated in a sealed plate at 4° C. for 3 hr and fluorescence was measured using a PerkinElmer Envision plate reader.
For orientation: In TR-FRET formats the signal depends on donor and acceptor labels being close together.

For experiment [2], the system named is A-427 human lung carcinoma. The experiment can be described thus: CellTiter-Glo cancer cell line proliferation assay, A-427. In kind it is cell-based. The settings on record: read-out: A427 at 24 hrs, IC50. Here is the method: (§1) Cell lines were cultured according to ATCC and recommendations.
(§2) CellTiter-Glo® Reagent Cancer Cell Line Proliferation Assays
(§3) Cells were plated in 96-well tissue culture plates at 4,000 cells/well and incubated at 37° C./5% CO2 for 24 hr in 100 μl of media. […] Cells were then treated with test compounds at various concentrations with a final concentration of 0.5% DMSO/well, and then incubated at 37° C./5% CO2 for 24 hr. 100 μl of CellTiter-Glo® Reagent (Promega Corporation, Madison, WI) was added to each well and processed according manufacturer's protocol. Results were analyzed and IC50-values were calculated in GraphPad 7 software.
(In general: ATP-based viability assays read luminescence as a measure of living cells.)

Experiment [3] concerns the target T2, KRAS(G12D) (Homo sapiens, UniProt P01116, G12D).
T2 construct: endogenous in cells; host or cells: SW1990
The experiment can be described thus: SW1990 WB assay (degradation DC50, Dmax). The class given is cell-based. Particulars: Western blot, SW1990 cells.

The test system of experiment [4] is AsPC-1 human pancreatic adenocarcinoma. The experiment can be described thus: CellTiter-Glo cancer cell line proliferation assay, AsPC-1. In kind it is cell-based. As for the experimental part: as §1, §2, §3

Molecules are shown by their SMILES. Like-named read-outs stand apart in the source and are kept apart here.

T2 sequence (P01116 1-188 isoform P01116-2 G12D): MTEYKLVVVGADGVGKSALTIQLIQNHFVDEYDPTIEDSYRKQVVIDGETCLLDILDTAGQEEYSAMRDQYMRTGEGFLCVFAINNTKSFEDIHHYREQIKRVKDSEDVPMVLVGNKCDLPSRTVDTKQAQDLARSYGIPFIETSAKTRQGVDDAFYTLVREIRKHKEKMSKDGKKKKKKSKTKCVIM
T1 sequence (P01116 1-188 isoform P01116-2 G12D): as above

Take `C#Cc1cccc2cc(O)cc(-c3ncc4c(N5CC6CCC(C5)N6)nc(OCC5(CN6CCN(CC7CCN(c8ccc9c(c8)CN(C8CCC(=O)NC8=O)C9=O)CC7)CC6)CC5)nc4c3F)c12` (centres unmarked) [Compound 57]: the IC50 in experiment [1] is below 100 nM; in experiment [2] (Homo sapiens, A-427, 24 hr), below 100 nM; in experiment [4] (Homo sapiens, ASPC1, 24 hr) it was below 100 nM. The 50% degradation concentration (DC50) in experiment [3] is below 100 nM. Also, the Dmax in experiment [3] is above 50%.
In the case of `C=CC(=O)N1CCN(c2nc(OCC3(CN4CCN(CC5CCN(c6ccc7c(c6)CN(C6CCC(=O)NC6=O)C7=O)CC5)CC4)CC3)nc3c2CCN(c2cccc4cccc(Cl)c24)C3)C[C@@H]1CC#N` (some centres unmarked) [Compound 98], the IC50 was above 1000 nM in experiment [1]; above 1000 nM in experiment [2] (Homo sapiens, A-427, 24 hr); above 1000 nM in experiment [4] (Homo sapiens, ASPC1, 24 hr). In experiment [3], the DC50 was above 1000 nM. The greatest degradation seen (Dmax) in experiment [3] is below 10%.
Turning to `C#Cc1c(F)ccc2cc(O)cc(-c3ncc4c(N5CC6CCC(C5)N6)nc(OCC5(CN6CCC(N7CCC(c8ccc9c(c8)CN(C8CCC(=O)NC8=O)C9=O)CC7)CC6)CC5)nc4c3F)c12` (centres unmarked) [Compound 107], the concentration for half-maximal inhibition (IC50) in experiment [1] is below 100 nM; in experiment [4] (Homo sapiens, ASPC1, 24 hr), below 100 nM. Moreover, the DC50 in experiment [3] was below 100 nM.
`C#Cc1cccc2cc(O)cc(-c3ncc4c(N5CC6CCC(C5)N6)nc(OCC5(CN6CCN(CC7CCN(c8ccc9c(c8)CN(C8CCC(=O)N(C)C8=O)C9=O)CC7)CC6)CC5)nc4c3F)c12` (centres unmarked) [Compound 71]: the IC50 in experiment [1] was below 100 nM; in experiment [2] (Homo sapiens, A-427, 24 hr), 100 to 1000 nM. The half-maximal degradation concentration (DC50) in experiment [3] is above 1000 nM. This compound returned a maximal degradation (Dmax) in experiment [3] of 10 to 50%.
As to `C#Cc1cccc2cc(O)cc(-c3ncc4c(N5CC6CCC(C5)N6C(=O)C(F)(F)F)nc(OCC5(CN6CCN(CC7CCN(c8ccc9c(c8)CN(C8CCC(=O)NC8=O)C9=O)CC7)CC6)CC5)nc4c3F)c12.Cl` (centres unmarked) [Compound 87], the half-inhibitory concentration (IC50) was in the range of 100 to 1000 nM in experiment [2] (24 hr) and 100 to 1000 nM in experiment [4] (24 hr, read-out: ASPC1 at 24 hrs, IC50). Also, the “WB data SW1990 DMax” value in experiment [3] is reported as “B (Dmax = 10-50%)”.
Regarding `C#Cc1cccc2cc(O)cc(-c3nc(OC)c4c(N5CC6CCC(C5)N6)nc(OCC5(CN6CCN(CC7CCN(c8ccc9c(c8)CN(C8CCC(=O)NC8=O)C9=O)CC7)CC6)CC5)nc4c3F)c12` (centres unmarked) [Compound 78], the half-inhibitory concentration (IC50) was below 100 nM in experiment [1]; below 100 nM in experiment [2] (Homo sapiens, A-427, 24 hr); below 100 nM in experiment [4] (Homo sapiens, ASPC1, 24 hr). This compound also displayed a 50% degradation concentration (DC50) in experiment [3] below 100 nM. This compound also showed a maximal degradation (Dmax) in experiment [3] above 50%.
In the case of `C#Cc1cccc2cc(O)cc(-c3ncc4c(N5CC6CCC(C5)N6)nc(OCC5(CN6CCN(CC7CCN(c8ccc9c(c8)C(=O)N(C8CCC(=O)NC8=O)C9)CC7)CC6)CC5)nc4c3F)c12` (centres unmarked) [Compound 86], the half-inhibitory concentration (IC50) in experiment [2] (Homo sapiens, A-427, 24 hr) was below 100 nM. In experiment [3], this compound had a half-maximal degradation concentration (DC50) below 100 nM and a Dmax above 50%. Also, the 50% inhibitory concentration (IC50) in experiment [4] (Homo sapiens, ASPC1, 24 hr) was below 100 nM.
In the case of `C#Cc1c(F)ccc2cc(O)cc(-c3ncc4c(N5CC6CCC(C5)N6)nc(OCC5(CN6CCN(CC7CN(c8ccc9c(c8)CN(C8CCC(=O)NC8=O)C9=O)C7)CC6)CC5)nc4c3F)c12` (centres unmarked) [Compound 103], the IC50 in experiment [1] was below 100 nM; in experiment [2] (Homo sapiens, A-427, 24 hr) it was above 1000 nM; in experiment [4] (Homo sapiens, ASPC1, 24 hr), 100 to 1000 nM. The same compound had a DC50 in experiment [3] above 1000 nM. Moreover, the Dmax in experiment [3] was in the range of 10 to 50%.
For `C#Cc1cccc2cc(O)cc(-c3ncc4c(N5CC6CCC(C5)N6)nc(OCC5(CN6CCC(C(=O)N7CCN(c8ccc9c(c8)CN(C8CCC(=O)NC8=O)C9=O)CC7)CC6)CC5)nc4c3F)c12` (centres unmarked) [Compound 85], the IC50 in experiment [2] (Homo sapiens, A-427, 24 hr) is below 100 nM; in experiment [4] (Homo sapiens, ASPC1, 24 hr), above 1000 nM. Besides, the DC50 in experiment [3] was 100 to 1000 nM. The Dmax in experiment [3] was above 50%.
In the case of `C#Cc1c(F)ccc2cc(O)cc(-c3ncc4c(N5CC6CCC(C5)N6)nc(OCC5(CN6CCC(C7CCN(c8ccc9c(c8)CN(C8CCC(=O)NC8=O)C9=O)CC7)CC6)CC5)nc4c3F)c12` (centres unmarked) [Compound 102], the 50% inhibitory concentration (IC50) in experiment [1] was below 100 nM; in experiment [2] (Homo sapiens, A-427, 24 hr), 100 to 1000 nM; in experiment [4] (Homo sapiens, ASPC1, 24 hr) it was below 100 nM. In experiment [3], this compound showed a 50% degradation concentration (DC50) of 100 to 1000 nM. Also, in experiment [3], the maximal degradation (Dmax) was 10 to 50%.
As to `C#Cc1c(F)ccc2cc(O)cc(-c3nc(O)c4c(N5CC6CCC(C5)N6)nc(OCC5(CN6CCN(CC7CCN(c8ccc9c(c8)CN(C8CCC(=O)NC8=O)C9=O)CC7)CC6)CC5)nc4c3F)c12` (centres unmarked) [Compound 101], the IC50 in experiment [2] (Homo sapiens, A-427, 24 hr) was above 1000 nM. For the same compound, in experiment [3], the DC50 was above 1000 nM and the greatest degradation seen (Dmax) is below 10%. For the same compound, in experiment [4] (Homo sapiens, ASPC1, 24 hr), the IC50 was 100 to 1000 nM.

Usually IC50 stands for the concentration at which inhibition is half-maximal. In general, DC50 refers to the concentration at which degradation of the target reaches its halfway point. A high value points to a less potent degrader. The Dmax is the greatest extent of degradation seen.
